Experiments:
GBA [1] = biological target: T1, GBA (Homo sapiens, UniProt P04062); experiment: Inhibition in intact HEK293T cells (24 h), read out by cABPP with ABP 10, GBA; assay type: cell-based; details: for IC50: 24 h treatment, cABPP quantification, n=3
T1 construct: HEK293T cells that contain endogenous GBA; endogenous in cells; host or cells: HEK293T (ATCC CRL-3216) overexpressing GBA2 and GBA3
T1 sequence (P04062 40-536): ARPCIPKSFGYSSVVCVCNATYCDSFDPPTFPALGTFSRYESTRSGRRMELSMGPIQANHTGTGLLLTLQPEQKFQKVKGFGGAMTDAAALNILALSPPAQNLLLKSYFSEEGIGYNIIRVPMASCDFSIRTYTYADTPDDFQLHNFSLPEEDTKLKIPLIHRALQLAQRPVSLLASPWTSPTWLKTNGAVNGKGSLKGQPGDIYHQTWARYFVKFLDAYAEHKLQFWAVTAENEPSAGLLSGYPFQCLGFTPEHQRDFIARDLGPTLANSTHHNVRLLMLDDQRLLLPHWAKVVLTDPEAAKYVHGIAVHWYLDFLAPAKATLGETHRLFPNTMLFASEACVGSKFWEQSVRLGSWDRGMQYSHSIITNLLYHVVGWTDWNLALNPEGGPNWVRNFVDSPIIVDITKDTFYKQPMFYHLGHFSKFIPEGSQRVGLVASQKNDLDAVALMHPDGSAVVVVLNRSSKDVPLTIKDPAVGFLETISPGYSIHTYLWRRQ
Text: We next examined the activity of 1 and 2 towards the three human β‐D‐glucosidase in intact HEK293T cells. […] It is noted that the GBA‐selectivity of both compounds is much improved in intact cells than in the in vitro system (Figure 2 and Table 1). This is especially true for compound 1, where an impressive 4‐logs of selectivity window is observed.
Figure 5 Inhibitory effect of β‐D‐xylo‐configured cyclophellitol 1 and cyclophellitol aziridine 2 on β‐glucosidases in intact HEK293T cells expressing GBA, GBA2 and GBA3. (A) Representative gel images of cABPP where cells were treated for 24 h with indicated inhibitor. Lysates were then prepared and labeled with fluorescent ABP 10. Fluorescently labeled proteins were visualized after SDS‐PAGE (1 set from n=3 replicates). (B) IC50 curves determined by cABPP labeling results. (C) Apparent IC50 values towards β‐glucosidases in intact HEK293T cells producing GBA, GBA2 and GBA3 were determined by the fluorescence quantification based on cABPP SDS‐PAGE results.
ABP labeling procedure: Glycosidases were labeled with excess fluorescent ABPs at optimum conditions. […] After ABP incubation, proteins were denatured by boiling the samples with 5× Laemmli buffer (50 % (v/v) 1 M Tris‐HCl, pH 6.8, 50 % (v/v) 100 % glycerol, 10 % (w/v) DTT, 10 % (w/v) SDS, 0.01 % (w/v) bromophenol blue) for 5 min at 98 °C, and separated by electrophoresis on 10 % (w/v) SDS‐PAGE gels running continuously at 90 V. Wet slab‐gels were scanned on fluorescence using the Typhoon FLA 9500 (GE Healthcare) at λEX 473 nm and λEM≥510 nm for green fluorescent ABP 8; and at λEX 635 nm and λEM≥665 nm for ABP 6, 9 and 10. ABP‐emitted fluorescence was quantified using ImageQuant software (GE Healthcare, Chicago, IL, USA) and curve‐fitted using Prism 8.0 (GraphPad Software). After fluorescence scanning, SDS‐PAGE gels were stained for total protein with Coomassie G250 and scanned on a ChemiDoc MP imager (Bio‐Rad, Hercules, CA, USA).[25] […]

GBA [2] = biological target: GBA (Danio rerio, UniProt E7EZM1); experiment: In vivo inhibition in zebrafish larvae, read out by cABPP with ABP 10, GBA; design: species or system zebrafish (Danio rerio); details: larvae exposed to 5 dpf, inhibitor in the medium, cABPP quantification
Chain of GBA (Danio rerio, UniProt E7EZM1) (E7EZM1 entry or part of it): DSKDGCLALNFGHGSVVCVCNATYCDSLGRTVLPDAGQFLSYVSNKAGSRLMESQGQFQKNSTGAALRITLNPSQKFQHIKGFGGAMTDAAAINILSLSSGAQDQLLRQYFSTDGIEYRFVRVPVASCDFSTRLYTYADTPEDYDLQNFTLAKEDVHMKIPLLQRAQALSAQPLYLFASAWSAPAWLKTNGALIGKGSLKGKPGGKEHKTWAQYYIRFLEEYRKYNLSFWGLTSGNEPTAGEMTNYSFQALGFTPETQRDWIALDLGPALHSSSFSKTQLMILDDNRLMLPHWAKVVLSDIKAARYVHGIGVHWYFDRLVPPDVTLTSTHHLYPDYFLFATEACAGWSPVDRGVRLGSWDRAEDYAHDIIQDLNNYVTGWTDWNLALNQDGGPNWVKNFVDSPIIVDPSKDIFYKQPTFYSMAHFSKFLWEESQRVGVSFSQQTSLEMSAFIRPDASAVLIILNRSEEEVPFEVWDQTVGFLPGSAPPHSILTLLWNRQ
Text: We further investigated the affinity of 1 and 2 towards β‐D‐glucosidases in living animals using zebrafish (Danio rerio) embryos, which express both GBA and GBA2. Following exposure for 5 days, fish larvae were sacrificed and lysed, and cABPP with ABP 10 was used to detect residual active β‐D‐glucosidase molecules in the lysates and for IC50 determination. […] Aziridine compound 2 is also selective against GBA over GBA2, albeit with a narrower selectivity window (Figure 6A–C). […]
Figure 6 In vivo inhibitory effect of β‐D‐xylo‐configured compounds on β‐glucosidases in zebrafish (Danio rerio) larvae. […] Fluorescently labeled proteins were visualized after SDS‐PAGE, only GBA and GBA2 were assessed in zebrafish larvae model. (B) Apparent IC50 values towards β‐glucosidases (GBA and GBA2) were determined by the fluorescence quantification based on cABPP results. […] (D) GlcSph levels in zebrafish larvae were determined as described in experiment section, n=2 replicates.
ABP labeling procedure: Glycosidases were labeled with excess fluorescent ABPs at optimum conditions. […] ABP‐emitted fluorescence was quantified using ImageQuant software (GE Healthcare, Chicago, IL, USA) and curve‐fitted using Prism 8.0 (GraphPad Software). After fluorescence scanning, SDS‐PAGE gels were stained for total protein with Coomassie G250 and scanned on a ChemiDoc MP imager (Bio‐Rad, Hercules, CA, USA).[25] […]

selectivity window for GBA in intact cells (GBA [1]; 24 h) | SMILES | IC50 (GBA [1]) | IC50 (GBA [2])
4 logs | O[C@@H]1[C@@H](O)[C@H](O)C[C@H]2O[C@@H]12 [compound 1, xylo‐cyclophellitol] | 0.00571 µM | 3.01 µM
 | O[C@@H]1[C@@H](O)[C@H](O)C[C@H]2N[C@@H]12 [compound 2, β‐D‐xylo‐Cyclophellitol aziridine] | 0.0422 µM | 6.99 µM
